From publication PMC7891710, “The narrow-spectrum anthelmintic oxantel is a potent agonist of a novel acetylcholine receptor subtype in whipworms” (PLoS Pathogens, 2021)

Tests used:
[1] = target: T1, Tsu-ACR-16-like receptor (O-AChR) (Trichuris suis, UniProt A0A890W0I7); assay: two-electrode voltage clamp in Xenopus oocytes, agonist dose-response; assay type: cell-based
T1 construct: full-length Tsu-ACR-16-like (GenBank MT386096), homomeric channel co-expressed with Asu-RIC-3 in Xenopus laevis oocytes
T1 sequence (A0A890W0I7 entry or part of it): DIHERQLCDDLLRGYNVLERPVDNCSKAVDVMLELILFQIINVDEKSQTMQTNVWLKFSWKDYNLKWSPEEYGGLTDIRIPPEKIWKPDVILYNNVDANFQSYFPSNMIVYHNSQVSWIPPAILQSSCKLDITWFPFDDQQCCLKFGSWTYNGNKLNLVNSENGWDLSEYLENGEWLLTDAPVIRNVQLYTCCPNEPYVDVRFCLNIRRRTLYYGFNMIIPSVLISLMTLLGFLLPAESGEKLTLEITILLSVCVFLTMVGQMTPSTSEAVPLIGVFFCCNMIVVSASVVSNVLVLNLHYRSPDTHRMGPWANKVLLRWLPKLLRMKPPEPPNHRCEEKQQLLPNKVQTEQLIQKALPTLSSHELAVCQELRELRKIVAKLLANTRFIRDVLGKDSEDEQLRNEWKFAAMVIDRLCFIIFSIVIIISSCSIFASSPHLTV

[2] = target: T1, Tsu-ACR-16-like receptor (O-AChR); assay: two-electrode voltage clamp in Xenopus oocytes, agonist dose-response (partial, Imax […]); assay type: cell-based

Row | SMILES | EC50 [1] [µM] | EC50 [2] [µM]
1 | CC(=O)OCC[N+](C)(C)C [ACh, acetylcholine] | 14.5 | 
2 | CN1CCCN=C1/C=C/c1cccc(O)c1 [oxa, oxantel] | 9.49 | 
3 | CN1CCCN=C1/C=C/c1cccs1 [pyr, pyrantel] |  | 148
